This assay relates to S. aureus ATCC 43300 (MRSA). The assay is described as follows: Mouse tissue cage model of MRSA infection, 5.5-day treatment (Example 2). As to conditions: for Cure rate (%) / adherent bacteria reduction from baseline (mean±SD): 24-h biofilm; for Cure rate (%) / Planktonic day 3 Δlog (individual animal) / adherent bacteria reduction from baseline (mean±SD): 5.5-day treatment; for Cure rate (%): cages without growth / total cages; for Adherent Mean / Adherent Δlog (individual animal): medium after sonication of explanted tissue cages, day 9 vs day 1; for Adherent Mean: group mean; for day on which bactericidal effect (mean reduction of bacterial load by ≥3 Log10) on planktonic bacteria was exerted: planktonic bacteria in tissue cage fluid, time points day 3, 6, 9; for Planktonic day 3 Mean / Planktonic day 6 Mean / Planktonic day 9 Mean / Planktonic day 3 Δlog (individual animal) / Planktonic day 9 Δlog (individual animal) / Planktonic day 6 Δlog (individual animal): tissue cage fluid; for Planktonic day 3 Mean / Planktonic day 6 Mean / Planktonic day 9 Mean: group mean Δlog from baseline (day 1); for Planktonic day 3 Δlog (individual animal) / Planktonic day 9 Δlog (individual animal) / Planktonic day 6 Δlog (individual animal): reduction from baseline (day 1); for Planktonic day 3 Δlog (individual animal): C57BL/6 mice; for Planktonic day 9 Δlog (individual animal): 3 days after end of treatment; for adherent bacteria reduction from baseline (mean±SD): n=3, given as positive reduction. It counts as in vivo, Staphylococcus aureus. The text has this: The purpose of this study was to evaluate the efficacy of Debio 1450 BES alone and in combination with Daptomycin (DAP) in the mouse tissue cage model of implant-associated infections caused by methicillin resistant Staphylococcus (S.) aureus (MRSA). The efficacy against 24-h biofilm of S. aureus ATCC 43300 (MRSA) was investigated and compared to the standard of care combination of rifampicin (RIF) and DAP at the human equivalent doses. Employing a small initial inoculum (ca. 300 CFU/cage) together with a 24-h biofilm allowed to simulate clinical settings of an acute implant infection and/or surgical debridement.
The tissue cage model of prosthetic joint infections is very well-established and closely mimics the human prosthetic joint infections. This model is based on subcutaneous insertion of tissue cages followed by experimental infection of the foreign body by injection of bacterial inoculum into the cages.
In brief, one sterile polytetrafluorethylene (Teflon) cylinder (32×10 mm), perforated by 130 regularly spaced holes of 1 mm diameter (tissue cages; Angst-Pfister AG, Zürich) was aseptically implanted subcutaneously into the back of C57BL/6 mice (minimum weight 20 g). Experiments were started after complete wound healing (minimum 2 weeks after surgery). For the efficacy study presented here the cages in all animals were infected with around 300 colony-forming units (CFU) of the MRSA strain ATCC 43300 per cage and the biofilm were developed for 24 h before the beginning of the treatment.
The animals received antibiotic treatment i.p. (Debio 1450 BES and DAP) or sc (RIF) on day 1, 2, 3, 4, 5, and 6 (only the morning administration on day 6). One group received only 5% glucose and served as infected, untreated control group (vehicle). […] Debio 1450 and vehicle were administered bid, and qdam on day 6. DAP and RIF were administered qdam. The 50 mg/kg dose of Debio 1450 BES was selected as the HED. The DAP dose of […] was chosen as it closely correlates with the human clinical dosage of 10 mg/kg once daily. The RIF dose of 25 mg/kg is among the most commonly used in the treatment of experimental biofilm infections.
Five to 6 days before infection, TCF is aspirated to ascertain the sterility of implanted cages by TCF plating on blood agar plates. […] In addition, the number of bacteria in TCF was determined on day 3 (before the first injection that day), on day 6 (before last treatment), and on day 9 (before explantation of the cages) to evaluate the treatment efficacy against planktonic bacteria. The mouse number and bacterial count for the given cage were reported to analyse the time course of antibacterial activity of the tested drugs. The efficacy against biofilm-embedded bacteria was assessed qualitatively and quantitatively following aseptic explantation of the tissue cages 3 days after the completion of treatment. The 3 days of resting period will help to avoid the antibiotic carryover effect. Upon explantation, cages were washed twice with phosphate buffered saline (PBS) (Lot #5060914) and immediately transferred into 5 mL 0.9% NaCl (Lot #L161619 or L162658). Following 30 s vortexing, sonication (3 min at 130 W), and an additional 30 s vortexing step the numbers of bacteria dispersed from biofilm was determined by plating. The sonicated cages were washed once with PBS, transferred into 5 mL TSB (Lot #0286463), and incubated for 48 h at 37° C., with an additional vortexing step after 24 h of incubation. After the incubation, tubes were vortexed again and bacterial regrowth was assessed visually. In addition, 100 μL of each culture was plated on blood agar plates to ascertain the regrowth. A positive culture was defined as a treatment failure. The efficacy of treatment against adherent bacteria is expressed as the cure rate (in percent), defined as the number of cages without growth divided by the total number of cages in the individual treatment group.

Several values for one entry are separate records, joined by “and”; a condition that tells them apart may be missing. Equal values may be shown once.

For the compound `CCCCCCCCCC(=O)N[C@@H](Cc1c[nH]c2ccccc12)C(=O)N[C@H](CC(N)=O)C(=O)N[C@@H](CC(=O)O)C(=O)N[C@@H]1C(=O)NCC(=O)N[C@@H](CCCN)C(=O)N[C@@H](CC(=O)O)C(=O)N[C@H](C)C(=O)N[C@@H](CC(=O)O)C(=O)NCC(=O)N[C@H](CO)C(=O)N[C@@H]([C@H](C)CC(=O)O)C(=O)N[C@@H](CC(=O)c2ccccc2N)C(=O)O[C@@H]1C` [Daptomycin], the “Cure rate (%)” value is listed as 33%, the “Adherent Mean” value was −3.91 log 10 CFU/mL, the “day on which bactericidal effect (mean reduction of bacterial load by ≥3 Log10) on planktonic bacteria was exerted” value was determined as 3 day and the “Planktonic day 3 Mean” value was −3.10 Log10. Besides, the “Planktonic day 6 Mean” value was −4.91 Log10 and the “Planktonic day 9 Mean” value is recorded as −3.60 Log10. In addition, for the setting “listed as DAP”, the “Adherent Δlog (individual animal)” value is −4.48 log 10 CFU/mL (2×) and −2.78 log 10 CFU/mL; the “Planktonic day 3 Δlog (individual animal)” value (“Planktonic day 3 Δlog” below) was −2.41 Log10 and −4.79 Log10 and −0.67 Log10 and −5.15 Log10 and −2.91 Log10 and −2.70 Log10; the “Planktonic day 9 Δlog (individual animal)” value (“Planktonic day 9 Δlog” for short) was −1.07 Log10 and −4.79 Log10 and 0.73 Log10 and −5.15 Log10 and −5.95 Log10 and −5.38 Log10; the “Planktonic day 6 Δlog (individual animal)” value (from here on “Planktonic day 6 Δlog”) was −5.72 Log10 and −4.79 Log10 and −2.46 Log10 and −5.15 Log10 and −5.95 Log10 and −5.38 Log10.

On to `Cc1c(CN(C)C(=O)/C=C/c2cnc3c(c2)CCC(=O)N3COP(=O)(O)O)oc2ccccc12` [Debio 1450, {6-[(1E)-3-{methyl [(3-methyl-1-benzofuran-2-yl)methyl]amino}-3-oxoprop-1-en-1-yl]-2-oxo-3,4-dihydro-1,8-naphthyridin-1 (2H)-yl} methyl dihydrogen phosphate], for which the “Cure rate (%)” value turned out to be 50%; the “adherent bacteria reduction from baseline (mean±SD)” value is 3.81±1.15 log 10 CFU/mL; the “Adherent Δlog (individual animal)” value was −4.48 log 10 CFU/mL (2×) and −2.48 log 10 CFU/mL; the “Adherent Mean” value was −3.81 log 10 CFU/mL. Further, the “day on which bactericidal effect (mean reduction of bacterial load by ≥3 Log10) on planktonic bacteria was exerted” value came out at 6 day, the “Planktonic day 3 Mean” value is listed as −2.62 Log10, the “Planktonic day 6 Mean” value is −4.45 Log10 and the “Planktonic day 9 Mean” value is −3.90 Log10. Further, the “Planktonic day 6 Δlog” value was −3.24 Log10 and −2.69 Log10 and −5.64 Log10 and −5.10 Log10 and −4.91 Log10 and −5.09 Log10; the “Planktonic day 3 Δlog” value was −1.42 Log10 and −1.40 Log10 and −2.10 Log10 and −5.10 Log10 and −1.93 Log10 and −3.79 Log10; the “Planktonic day 9 Δlog” value was −5.85 Log10 and −3.41 Log10 and −1.32 Log10 and −5.10 Log10 and −4.91 Log10 and −2.79 Log10.

On to `CO[C@H]1/C=C/O[C@@]2(C)Oc3c(C)c(O)c4c(O)c(c(/C=N/N5CCN(C)CC5)c(O)c4c3C2=O)NC(=O)/C(C)=C\C=C\[C@H](C)[C@H](O)[C@@H](C)[C@@H](O)[C@@H](C)[C@H](OC(C)=O)[C@@H]1C` [Rifampicin], for which the “Cure rate (%)” value was 100%, the “adherent bacteria reduction from baseline (mean±SD)” value was 3.37±0 log 10 CFU/mL, the “Adherent Δlog (individual animal)” value is recorded as −3.4 log 10 CFU/mL and the “Adherent Mean” value is −3.37 log 10 CFU/mL. The “day on which bactericidal effect (mean reduction of bacterial load by ≥3 Log10) on planktonic bacteria was exerted” value was 3 day, the “Planktonic day 3 Mean” value is −4.53 Log10, the “Planktonic day 6 Mean” value is recorded as −4.53 Log10 and the “Planktonic day 9 Mean” value is reported as −4.53 Log10. Besides, where the note is “listed as RIF”, the “Planktonic day 3 Δlog” value was −4.08 Log10 and −6.73 Log10 and −3.5 Log10 and −3.4 Log10 and −4.9 Log10; the “Planktonic day 9 Δlog” value is −4.08 Log10 and −6.73 Log10 and −3.5 Log10 and −3.4 Log10 and −4.9 Log10; the “Planktonic day 6 Δlog” value was −4.08 Log10 and −6.73 Log10 and −3.5 Log10 and −3.4 Log10 and −4.9 Log10.
